# Experimental data published in patent US20220265775A1, “COMPOSITIONS AND METHODS FOR TREATING PULMONARY EDEMA OR LUNG INFLAMMATION” (priority 2019, published 2022).
# Key:
# RLE-6TN cells = assay: RLE-6TN cell survival under hyperoxia and recovery, viable cells counted by trypan blue exclusion; type: cell-based, rat
# Procedure: FIG. 7. […] The cells were cultured in DMEM/F12 with 10% FBS in 21% O2 and 5% CO2 overnight. […] The viable cells are counted immediately after 72-hour hyperoxia exposure. Cell viability is assessed with trypan blue. The amount of viable cells under specific conditions is presented as a percentage of the cell number from hyperoxia alone. Data are mean±s.d. of four independent experiments with *=P<0.05; **=P<0.01.
# FIG. 8. […] In both (A) and (B), the number of viable cells under specific conditions is presented as a percentage of the cell number related to hyperoxia alone in the same experiment. Data are mean s.d. of four independent experiments with *=P<0.05; **=P<0.01.
# (§1) FIG. 10. HO-1 upregulation is required for T3-increased RLE-6TN cell survival in hyperoxia. […] The cells were then collected for Western Blot analysis. (B) The cells were incubated in 21% O2 and 5% CO2 for 72 hours in the present of HO-1 inhibitor Tin Protoporphyrin IX (10^−6M). […] Cell viability is assessed with trypan blue. The number of viable cells under specific conditions is presented as a percentage of the cell number related to hyperoxia alone. Data are mean±s.d. of three independent experiments with *=P<0.05; **=P<0.01.
# FIG. 11. PI3K inhibitor wortmannin blocked T3-induced cell survival in hyperoxia. […] Cell viability is assessed with trypan blue. The number of viable cells under specific conditions is presented as a percentage of the cell number related to hyperoxia alone. Data are mean±s.d. of four independent experiments with *=P<0.05; **=P<0.01.
# At the end of the hyperoxia exposure period, the viable cells were counted by trypan blue dye exclusion.
# Nrf2 = assay: Western blot of total cellular and nuclear Nrf2 protein in RLE-6TN cells under hyperoxia; type: cell-based, rat; settings: 24 hours of hyperoxia, 10^−6 M T3
# Procedure: FIG. 9. […] The cells were then collected for Western Blot analysis. (A) Cellular total Nrf2 protein; (B) Nuclear Nrf2.
# Nuclei were extracted with NE-PER nuclear and cytoplasmic extraction reagents kit (Thermo Fisher Scientific, Inc., Waltham, Mass.) following the manufacturer's instruction.
# (§2) The cells were lysed in lysis buffer containing 20 mM Tris HCl (pH 7.5), 150 mM NaCl, 1 mM EDTA, 1 mM EGTA, 1% (vol/vol) Triton X-100 with protease inhibitors (1 mM PMSF, 2 μg/ml pepstatin, and 10 μg/ml each of aprotinin and leupeptin), and phosphatase inhibitors (2.5 mM sodium pyrophosphate, 1 mM β-glycerophosphate, and 1 mM Na3VO4). The lysate was drawn 10 times through a 25-gauge needle on ice for further lysis and then was centrifuged at 13,000 rpm for 15 minutes at 4° C. The supernatant was collected, and the protein concentrations were determined by use of the BCA protein assay kit (Sigma-Aldrich, St. Louis, Mo.). Immediately after this step, equal amounts of protein were subjected to Western blotting analysis.
# HO-1 = assay: Western blot of total cellular HO-1 protein in RLE-6TN cells under hyperoxia; type: cell-based, rat; settings: T3 10^−6 M
# Procedure: as §1, §2
# Akt = assay: Western blot of Akt phosphorylation in RLE-6TN cells under hyperoxia; type: cell-based, rat; settings: hyperoxia for 24 hours, T3 added for 20 minutes, vs room air control and hyperoxia alone
# Procedure: FIG. 12. T3-induced increase activation of Akt by phosphorylation. (A) T3 augmented phosphorylation of Akt (p-Akt). […] (C) The PI3K inhibitor wortmannin blocked the T3-induced increase in total cellular amount of HO-1 protein.
# as §2
# [1] = tested on: hyperoxia-induced lung injury; assay: Wet-dry lung weight ratio in hyperoxia-exposed rats; type: in vivo, Sprague Dawley rats; settings: 60 hours of hyperoxia (O2 with T3), intraperitoneal T3 12.5 μg/kg body weight each 12 hours, O2 alone 6.61±0.604, p=0.0495
# Source text: (§3) All experimental protocols for animal treatments were approved by the University of Minnesota Institutional Animal Care and Use Committee. […] The room-air control rats were kept in the University animal housing facility. At the end of hyperoxic exposure, rats were sacrificed by intraperitoneal pentobarbital injection, and the lungs were harvested; the right lobes were allocated for histopathology, measurement of lung tissue myeloperoxidase (MPO) activity and wet-to-dry weight ratio. The left lobes underwent bronchoalveolar lavage (BAL) to determine BAL protein concentrations and differential cell counts.
# A portion of the right lung was rinsed briefly in PBS, blotted, and then weighed to obtain the “wet” weight. Lungs then were dried in an oven at 80° C. for seven days to obtain the “dry” weight.
# [2] = tested on: myeloperoxidase (MPO) activity in lung tissue; assay: Myeloperoxidase (MPO) activity assay and MPO immunostaining of lung tissue of hyperoxia-exposed rats; type: in vivo, Sprague Dawley rats
# Source text: as §3
# To quantify the neutrophil activity in the lung, MPO activity was assayed as previously described (Abraham et al., J Immunol 165:2950-2954, 2000). Lung tissues without prior lavage were frozen in liquid nitrogen, weighed, and stored at −86° C. The lungs were homogenized for 30 seconds in 1.5 ml 20 mM potassium phosphate, pH 7.4, and centrifuged at 4° C. for 30 minutes at 40,000×g. The pellet was resuspended in 1.5 ml 50 mM potassium phosphate, pH 6.0, containing 0.5% hexadecyltrimethylammonium bromide, sonicated for 90 seconds, incubated at 60° C. for two hours, and centrifuged at 14,000 rpm for 30 minutes at 4° C. The supernatant was assayed for peroxidase activity corrected to lung weight. MPO was expressed as activity per gram of lung tissue. […]
compound,measurement,setting,value
"N[C@@H](Cc1cc(I)c(Oc2ccc(O)c(I)c2)c(I)c1)C(=O)O [T3, triiodothyronine]",number of viable AT2 cells at 48 hours of recovery,"RLE-6TN cells; 90% oxygen for 24 or 48 hours, compound present only during recovery in 21% O2",significantly increased the number of viable AT2 cells
same,increase in number of surviving cells compared with hyperoxia control,"RLE-6TN cells; 90% oxygen for 72 hours, 10^−6M",~2.5 fold
same,protective effect on viable AT2 cell number after recovery in room air,"RLE-6TN cells; hyperoxia 72 hours with T3, then room air 72 hours with no supplemental T3",persisted and was of similar magnitude
same,nuclear Nrf-2 protein expression,Nrf2,significantly increased both total cellular and nuclear Nrf-2 protein expression
same,total cellular Nrf-2 protein expression,Nrf2,significantly increased both total cellular and nuclear Nrf-2 protein expression
same,total cellular protein of HO-1,HO-1,significantly enhanced total cellular protein of HO-1
same,phosphorylation of Akt (p-Akt),Akt,augmented phosphorylation of Akt at Ser473
same,wet-to-dry lung weight ratio,[1],5.82±0.197
same,MPO-positive cells in the lungs (immunostaining),[2]; T3-injected rats exposed to 95% oxygen for 60 hours vs hyperoxic lungs without T3,fewer MPO-positive cells
same,lung MPO activity,"[2]; rats, 60 hours of hyperoxia, T3 supplementation vs hyperoxia alone",significantly reduced the hyperoxia-induced MPO activity
